Results as given in patent US9580416B2, “Inhibitors of Bruton's tyrosine kinase” (PHARMACYCLICS LLC, priority 2014, dated 2017).

Assays:
Assay type in all cases: biochemical
[1] = target: T1, JAK3 (Homo sapiens, UniProt P52333); test: Inhibition of a panel of kinases, in vitro HotSpot kinase assay: JAK3
T1 sequence (P52333 1-1124): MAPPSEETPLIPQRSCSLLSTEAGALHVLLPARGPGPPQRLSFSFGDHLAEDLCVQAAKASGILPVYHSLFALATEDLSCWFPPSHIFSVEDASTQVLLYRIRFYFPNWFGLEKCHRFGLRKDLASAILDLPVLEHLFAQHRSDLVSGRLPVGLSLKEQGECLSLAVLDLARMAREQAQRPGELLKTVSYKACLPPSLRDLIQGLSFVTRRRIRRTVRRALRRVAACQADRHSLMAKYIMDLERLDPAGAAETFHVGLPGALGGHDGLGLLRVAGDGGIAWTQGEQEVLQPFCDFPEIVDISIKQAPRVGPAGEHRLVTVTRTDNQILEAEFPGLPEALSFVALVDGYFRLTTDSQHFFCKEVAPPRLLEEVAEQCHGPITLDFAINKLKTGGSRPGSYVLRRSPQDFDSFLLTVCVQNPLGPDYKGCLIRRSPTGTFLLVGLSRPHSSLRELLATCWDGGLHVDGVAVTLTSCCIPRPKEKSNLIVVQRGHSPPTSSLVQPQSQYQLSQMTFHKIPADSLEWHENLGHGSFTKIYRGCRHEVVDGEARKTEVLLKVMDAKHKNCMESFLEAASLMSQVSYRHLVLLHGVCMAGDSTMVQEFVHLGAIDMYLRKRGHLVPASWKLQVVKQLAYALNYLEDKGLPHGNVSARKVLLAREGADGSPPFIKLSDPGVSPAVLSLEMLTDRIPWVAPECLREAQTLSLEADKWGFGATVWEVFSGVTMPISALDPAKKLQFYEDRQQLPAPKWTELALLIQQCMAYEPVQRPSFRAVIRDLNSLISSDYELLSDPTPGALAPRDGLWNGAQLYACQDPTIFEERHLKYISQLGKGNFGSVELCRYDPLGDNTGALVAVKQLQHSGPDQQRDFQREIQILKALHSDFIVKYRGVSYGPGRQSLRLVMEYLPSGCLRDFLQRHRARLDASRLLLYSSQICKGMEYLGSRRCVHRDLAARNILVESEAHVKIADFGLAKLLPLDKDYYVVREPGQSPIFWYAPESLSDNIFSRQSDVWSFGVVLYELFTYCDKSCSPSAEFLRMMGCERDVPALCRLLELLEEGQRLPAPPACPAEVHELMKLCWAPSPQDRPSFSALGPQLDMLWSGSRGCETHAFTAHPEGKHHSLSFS
Protocol: (§1) The degree of inhibition of a panel of kinases is determined using the in vitro HotSpot kinase assay (purified enzymes, ^33P-ATP, an appropriate substrate and 1 uM ATP).

[2] = target: Btk (Homo sapiens, UniProt Q06187); test: Btk kinase activity, TR-FRET assay; details: read-out: Btk (IC50)
Btk, sequence (Q06187 whole entry): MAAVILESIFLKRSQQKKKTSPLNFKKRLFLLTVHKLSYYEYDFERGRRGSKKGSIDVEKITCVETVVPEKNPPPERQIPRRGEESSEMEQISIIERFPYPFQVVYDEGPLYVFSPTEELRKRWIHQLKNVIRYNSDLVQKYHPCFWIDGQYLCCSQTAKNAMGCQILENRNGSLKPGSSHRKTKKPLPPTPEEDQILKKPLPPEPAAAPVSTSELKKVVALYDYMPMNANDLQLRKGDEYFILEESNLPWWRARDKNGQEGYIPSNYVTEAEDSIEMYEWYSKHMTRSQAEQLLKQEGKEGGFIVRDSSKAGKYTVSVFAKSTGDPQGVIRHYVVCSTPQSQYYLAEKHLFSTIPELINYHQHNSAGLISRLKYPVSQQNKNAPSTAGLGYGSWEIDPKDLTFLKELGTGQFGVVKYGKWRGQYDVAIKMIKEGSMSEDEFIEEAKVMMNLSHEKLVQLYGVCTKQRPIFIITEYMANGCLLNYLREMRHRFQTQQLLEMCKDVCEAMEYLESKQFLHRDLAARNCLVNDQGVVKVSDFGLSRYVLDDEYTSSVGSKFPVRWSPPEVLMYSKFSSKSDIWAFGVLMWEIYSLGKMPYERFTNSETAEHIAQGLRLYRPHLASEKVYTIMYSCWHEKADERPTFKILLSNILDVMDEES
Summary of the method: (§2)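 Enzyme (Btk 0.5 nM; Lck 6 nM) reacted 1 h with inhibitor, ATP at Km and biotin-peptide substrate in pH 7.4 buffer, 10% DMSO. Phosphopeptide detected by Eu-p-Tyr100 antibody plus streptavidin-APC (665/615 nm). IC50 calculated from fitted Ki(app) via ATP/Km correction plus half total enzyme.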

[3] = target: EGFR (Homo sapiens, UniProt P00533); test: Inhibition of a panel of kinases, in vitro HotSpot kinase assay: EGFR
EGFR, sequence (P00533 25-1210): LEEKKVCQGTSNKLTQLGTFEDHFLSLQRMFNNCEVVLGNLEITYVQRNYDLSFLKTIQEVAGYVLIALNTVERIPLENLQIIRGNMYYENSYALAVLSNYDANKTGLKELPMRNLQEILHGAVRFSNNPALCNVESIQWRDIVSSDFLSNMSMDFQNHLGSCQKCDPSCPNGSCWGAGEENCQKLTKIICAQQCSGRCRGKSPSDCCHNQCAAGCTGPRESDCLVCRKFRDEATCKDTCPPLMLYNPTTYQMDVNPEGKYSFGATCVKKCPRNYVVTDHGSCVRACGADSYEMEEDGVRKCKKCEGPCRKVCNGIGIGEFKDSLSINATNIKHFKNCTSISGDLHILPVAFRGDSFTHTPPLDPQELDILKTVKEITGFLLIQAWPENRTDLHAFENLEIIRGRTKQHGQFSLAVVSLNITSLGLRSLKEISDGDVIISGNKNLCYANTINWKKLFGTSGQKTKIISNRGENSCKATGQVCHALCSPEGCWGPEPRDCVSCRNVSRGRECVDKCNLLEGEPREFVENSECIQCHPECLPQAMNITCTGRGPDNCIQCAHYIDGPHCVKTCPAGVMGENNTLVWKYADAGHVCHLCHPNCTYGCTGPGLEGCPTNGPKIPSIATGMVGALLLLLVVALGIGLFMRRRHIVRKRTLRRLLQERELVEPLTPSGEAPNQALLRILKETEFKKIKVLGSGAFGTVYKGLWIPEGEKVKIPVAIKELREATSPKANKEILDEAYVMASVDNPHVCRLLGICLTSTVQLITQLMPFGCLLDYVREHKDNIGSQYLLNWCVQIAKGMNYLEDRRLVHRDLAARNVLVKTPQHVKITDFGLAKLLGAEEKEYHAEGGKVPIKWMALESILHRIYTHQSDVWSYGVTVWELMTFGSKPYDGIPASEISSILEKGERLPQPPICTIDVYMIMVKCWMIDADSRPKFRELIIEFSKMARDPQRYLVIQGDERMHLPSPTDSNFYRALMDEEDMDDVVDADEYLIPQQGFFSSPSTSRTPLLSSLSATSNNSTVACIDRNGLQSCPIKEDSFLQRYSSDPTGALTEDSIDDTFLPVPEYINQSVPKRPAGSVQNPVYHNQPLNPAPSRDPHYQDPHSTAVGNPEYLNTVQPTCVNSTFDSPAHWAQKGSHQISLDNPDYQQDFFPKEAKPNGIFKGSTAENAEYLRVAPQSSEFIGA
Protocol: as §1

[4] = target: Lck (Homo sapiens, UniProt P06239); test: Lck kinase activity, TR-FRET assay; details: read-out: LCK (IC50)
Lck, sequence (P06239 whole entry, species assumed): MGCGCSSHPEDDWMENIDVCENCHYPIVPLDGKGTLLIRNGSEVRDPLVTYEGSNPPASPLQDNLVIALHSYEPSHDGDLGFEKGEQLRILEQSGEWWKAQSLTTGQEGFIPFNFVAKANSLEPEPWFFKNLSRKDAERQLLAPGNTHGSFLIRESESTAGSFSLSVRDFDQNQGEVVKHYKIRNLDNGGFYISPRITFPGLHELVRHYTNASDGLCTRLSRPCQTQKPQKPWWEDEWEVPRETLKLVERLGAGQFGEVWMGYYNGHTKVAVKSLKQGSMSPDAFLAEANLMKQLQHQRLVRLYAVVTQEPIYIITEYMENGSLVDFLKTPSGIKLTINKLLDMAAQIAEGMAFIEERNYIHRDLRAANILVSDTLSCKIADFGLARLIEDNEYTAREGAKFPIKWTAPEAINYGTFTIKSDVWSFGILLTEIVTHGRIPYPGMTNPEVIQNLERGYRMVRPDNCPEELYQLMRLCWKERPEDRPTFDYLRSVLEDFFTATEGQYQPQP
Summary of the method: as §2

Cc1cnc(NC(=O)c2ccc(Oc3ccnc4[nH]nc(N[C@@H]5CCN(C(=O)CCCN(C)C)C5)c34)cc2)s1 [compound 202, 4-[(3-{[(3R)-1-[4-(dimethylamino)butanoyl]pyrrolidin-3-yl]amino}-1H-pyrazolo[3,4-b]pyridin-4-yl)oxy]-N-(5-methyl-1,3-thiazol-2-yl)benzamide]
IC50 [1]: > 10000 nM
IC50 [2]: < 100 nM
IC50 [3]: > 10000 nM
IC50 [4]: 1000 to 10000 nM

C=CC(=O)N1CCC[C@@H](Nc2n[nH]c3nccc(Oc4ccc(C(=O)Nc5cc(C(F)(F)F)ccn5)cc4)c23)C1 [compound 203, 4-[(3-{[(3R)-1-(prop-2-enoyl)piperidin-3-yl]amino}-1H-pyrazoo[3,4-b]pyridin-4-yl)oxy]-N-[4-(trifluoromethyl)pyridin-2-yl]benzamide]
IC50 [1]: 100 to 1000 nM
IC50 [2]: < 100 nM
IC50 [3]: < 100 nM
IC50 [4]: 100 to 1000 nM

CN1CCC(C(=O)N2CCC[C@@H](Nc3n[nH]c4nccc(Oc5ccc(C(=O)Nc6cc(C(F)(F)F)ccn6)cc5)c34)C2)CC1 [compound 204, 4-[(3-{[(3R)-1-(1-methylpiperidine-4-carbonyl)piperidin-3-yl]amino}-1H-pyrazolo[3,4-b]pyridin-4-yl)oxy]-N-[4-(trifluoromethyl)pyridin-2-yl]benzamide]
IC50 [1]: > 10000 nM
IC50 [2]: < 100 nM
IC50 [3]: 1000 to 10000 nM
IC50 [4]: < 100 nM

CC#CC(=O)N1CCC[C@@H](Nc2n[nH]c3nccc(Oc4ccc(C(=O)Nc5cc(C(F)(F)F)ccn5)cc4)c23)C1 [compound 205, 4-[(3-{[(3R)-1-(but-2-ynoyl)piperidin-3-yl]amino}-1H-pyrazolo[3,4-b]pyridin-4-yl)oxy]-N-[4-(trifluoromethyl)pyridin-2-yl]benzamide]
IC50 [1]: > 10000 nM
IC50 [2]: < 100 nM
IC50 [3]: 1000 to 10000 nM
IC50 [4]: 100 to 1000 nM

CCNC(=O)N1CCC[C@@H](Nc2n[nH]c3nccc(Oc4ccc(C(=O)Nc5cc(C(F)(F)F)ccn5)cc4)c23)C1 [compound 207, (3R)-N-ethyl-3-{[4-(4-{[4-(trifluoromethyl)pyridin-2-yl]carbamoyl}phenoxy)-1H-pyrazolo[3,4-b]pyridin-3-yl]amino}piperidine-1-carboxamide]
IC50 [1]: > 10000 nM
IC50 [2]: < 100 nM
IC50 [3]: 1000 to 10000 nM
IC50 [4]: 100 to 1000 nM

O=C(Nc1cc(C(F)(F)F)ccn1)c1ccc(Oc2ccnc3[nH]nc(N[C@@H]4CCN(C(=O)C5CC5)C4)c23)cc1 [compound 215, 4-[(3-{[(3R)-1-cyclopropanecarbonylpyrrolidin-3-yl]amino}-1H-pyrazolo[3,4-b]pyridin-4-yl)oxy]-N-[4-(trifluoromethyl)pyridin-2-yl]benzamide]
IC50 [1]: > 10000 nM
IC50 [2]: < 100 nM
IC50 [3]: > 10000 nM
IC50 [4]: 1000 to 10000 nM

CCNC(=O)N1CCC[C@@H](Nc2n[nH]c3nccc(Oc4ccc(-c5nc6ccccc6s5)cc4)c23)C1 [compound 216, (3R)-3-({4-[4-(1,3-benzothiazol-2-yl)phenoxy]-1H-pyrazolo[3,4-b]pyridin-3-yl}amino)-N-ethylpiperidine-1-carboxamide]
IC50 [1]: > 10000 nM
IC50 [2]: 100 to 1000 nM
IC50 [3]: > 10000 nM
IC50 [4]: 1000 to 10000 nM

Cc1cnc(NC(=O)c2ccc(Oc3ccnc4[nH]nc(C5CCCN(C(=O)C6CCN(C)CC6)C5)c34)cc2)s1 (stereo not drawn) [compound 217, N-(5-methyl-1,3-thiazol-2-yl)-4-({3-[1-(1-methylpiperidine-4-carbonyl)piperidin-3-yl]-1H-pyrazolo[3,4-b]pyridin-4-yl}oxy)benzamide]
IC50 [1]: > 10000 nM
IC50 [2]: 100 to 1000 nM
IC50 [3]: 1000 to 10000 nM
IC50 [4]: 1000 to 10000 nM

O=C(Nc1cc(C(F)(F)F)ccn1)c1ccc(Oc2ccnc3[nH]nc(C4CCCN(C(=O)C5CC5)C4)c23)cc1 (stereo not drawn) [compound 218, 4-{[3-(1-cyclopropanecarbonylpiperidin-3-yl)-1H-pyrazolo[3,4-b]pyridin-4-yl]oxy}-N-[4-(trifluoromethyl)pyridin-2-yl]benzamide]
IC50 [1]: > 10000 nM
IC50 [2]: 100 to 1000 nM
IC50 [3]: 1000 to 10000 nM
IC50 [4]: 1000 to 10000 nM

CCC(=O)N1CCC[C@@H](Nc2n[nH]c3nccc(Oc4ccc(-c5nc6cccc(C)c6o5)cc4)c23)C1 [compound 219, 1-[(3R)-3-({4-[4-(7-methyl-1,3-benzoxazol-2-yl)phenoxy]-1H-pyrazolo[3,4-b]pyridin-3-yl}amino)piperidin-1-yl]propan-1-one]
IC50 [1]: > 10000 nM
IC50 [2]: > 10000 nM
IC50 [3]: > 10000 nM
IC50 [4]: > 10000 nM

Cc1cccc2nc(-c3ccc(Oc4ccnc5[nH]nc(N[C@@H]6CCCN(C(=O)C7CC7)C6)c45)cc3)oc12 [compound 220, (3R)-1-cyclopropanecarbonyl-N-{4-[4-(7-methyl-1,3-benzoxazol-2-yl)phenoxy]-1H-pyrazolo[3,4-b]pyridin-3-yl}piperidin-3-amine]
IC50 [1]: > 10000 nM
IC50 [2]: 1000 to 10000 nM
IC50 [3]: > 10000 nM
IC50 [4]: > 10000 nM

Cc1cnc(NC(=O)c2ccc(Oc3ccnc4[nH]nc(N[C@@H]5CCN(C(=O)C6CCN(C)CC6)C5)c34)cc2)s1 [compound 221, N-(5-methyl-1,3-thiazol-2-yl)-4-[(3-{[(3R)-1-(1-methylpiperidine-4-carbonyl)pyrrolidin-3-yl]amino}-1H-pyrazolo[3,4-b]pyridin-4-yl)oxy]benzamide]
IC50 [1]: > 10000 nM
IC50 [2]: < 100 nM
IC50 [3]: 1000 to 10000 nM
IC50 [4]: 100 to 1000 nM

CCC(=O)N1CCC[C@@H](Nc2n[nH]c3nccc(Oc4ccc(-c5nc6ccccc6s5)cc4)c23)C1 [compound 222, 1-[(3R)-3-({4-[4-(1,3-benzothiazol-2-yl)phenoxy]-1H-pyrazolo[3,4-b]pyridin-3-yl}amino)piperidin-1-yl]propan-1-one]
IC50 [1]: > 10000 nM
IC50 [2]: 100 to 1000 nM
IC50 [3]: > 10000 nM
IC50 [4]: 100 to 1000 nM

CCNC(=O)N1CCC[C@@H](Nc2n[nH]c3nccc(Oc4ccc(-c5nc6ccccc6[nH]5)cc4)c23)C1 [compound 224, (3R)-3-({4-[4-(1H-1,3-benzodiazol-2-yl)phenoxy]-1H-pyrazolo[3,4-b]pyridin-3-yl}amino)-N-ethylpiperidine-1-carboxamide]
IC50 [1]: > 10000 nM
IC50 [2]: 1000 to 10000 nM
IC50 [3]: > 10000 nM
IC50 [4]: 1000 to 10000 nM

CCC(=O)N1CCC[C@@H](Nc2n[nH]c3nccc(Oc4ccc(C(=O)Nc5cc(C(F)(F)F)ccn5)cc4)c23)C1 [compound 225, 4-[(3-{[(3R)-1-propanoylpiperidin-3-yl]amino}-1H-pyrazolo[3,4-b]pyridin-4-yl)oxy]-N-[4-(trifluoromethyl)pyridin-2-yl]benzamide]
IC50 [1]: > 10000 nM
IC50 [2]: < 100 nM
IC50 [3]: 100 to 1000 nM
IC50 [4]: 100 to 1000 nM

CC1(C(=O)N2CCC[C@@H](Nc3n[nH]c4nccc(Oc5ccc(C(=O)Nc6nc7ccccc7s6)cc5)c34)C2)COC1 [compound 226, N-(1,3-benzothiazol-2-yl)-4-[(3-{[(3R)-1-(3-methyloxetane-3-carbonyl)piperidin-3-yl]amino}-1H-pyrazolo[3,4-b]pyridin-4-yl)oxy]benzamide]
IC50 [1]: 1000 to 10000 nM
IC50 [2]: < 100 nM
IC50 [3]: > 10000 nM
IC50 [4]: 100 to 1000 nM

CCNC(=O)N1CCC[C@@H](Nc2n[nH]c3nccc(Oc4ccc(C(=O)Nc5cc(C)ccn5)cc4)c23)C1 [compound 227, (R)-N-ethyl-3-(4-(4-(4-methylpyridin-2-ylcarbamoyl)phenoxy)-1H-pyrazolo[3,4-b]pyridin-3-ylamino)piperidine-1-carboxamide]
IC50 [1]: > 10000 nM
IC50 [2]: < 100 nM
IC50 [3]: > 10000 nM
IC50 [4]: 1000 to 10000 nM

CCNC(=O)N[C@@H]1CCCN(c2n[nH]c3nccc(Oc4ccc(C(=O)Nc5cc(C(F)(F)F)ccn5)cc4)c23)C1 [compound 228, 4-({3-[(3R)-3-[(ethylcarbamoyl)amino]piperidin-1-yl]-1H-pyrazolo[3,4-b]pyridin-4-yl}oxy)-N-[4-(trifluoromethyl)pyridin-2-yl]benzamide]
IC50 [1]: > 10000 nM
IC50 [2]: < 100 nM
IC50 [3]: 1000 to 10000 nM
IC50 [4]: 100 to 1000 nM
